Measured values published in ChEMBL document CHEMBL3632516, “Influence of polar side chains modifications on the dual enkephalinase inhibitory activity and conformation of human opiorphin, a pain perception related peptide” (Bioorg Med Chem Lett, 2015).
Residues, ends and D or L forms follow the SMILES beside them. *: point of attachment. X1 = CC(=O)N[C@@H]1[C@@H](O)[C@H](O)[C@@H](CO)O[C@@H]1*

Key:
Aminopeptidase N = Aminopeptidase N (Homo sapiens, UniProt P15144); assay: Inhibition of human recombinant aminopeptidase N using […] as substrate after 20 to 40 mins by fluorometry
Sequence of Aminopeptidase N (P15144 whole entry): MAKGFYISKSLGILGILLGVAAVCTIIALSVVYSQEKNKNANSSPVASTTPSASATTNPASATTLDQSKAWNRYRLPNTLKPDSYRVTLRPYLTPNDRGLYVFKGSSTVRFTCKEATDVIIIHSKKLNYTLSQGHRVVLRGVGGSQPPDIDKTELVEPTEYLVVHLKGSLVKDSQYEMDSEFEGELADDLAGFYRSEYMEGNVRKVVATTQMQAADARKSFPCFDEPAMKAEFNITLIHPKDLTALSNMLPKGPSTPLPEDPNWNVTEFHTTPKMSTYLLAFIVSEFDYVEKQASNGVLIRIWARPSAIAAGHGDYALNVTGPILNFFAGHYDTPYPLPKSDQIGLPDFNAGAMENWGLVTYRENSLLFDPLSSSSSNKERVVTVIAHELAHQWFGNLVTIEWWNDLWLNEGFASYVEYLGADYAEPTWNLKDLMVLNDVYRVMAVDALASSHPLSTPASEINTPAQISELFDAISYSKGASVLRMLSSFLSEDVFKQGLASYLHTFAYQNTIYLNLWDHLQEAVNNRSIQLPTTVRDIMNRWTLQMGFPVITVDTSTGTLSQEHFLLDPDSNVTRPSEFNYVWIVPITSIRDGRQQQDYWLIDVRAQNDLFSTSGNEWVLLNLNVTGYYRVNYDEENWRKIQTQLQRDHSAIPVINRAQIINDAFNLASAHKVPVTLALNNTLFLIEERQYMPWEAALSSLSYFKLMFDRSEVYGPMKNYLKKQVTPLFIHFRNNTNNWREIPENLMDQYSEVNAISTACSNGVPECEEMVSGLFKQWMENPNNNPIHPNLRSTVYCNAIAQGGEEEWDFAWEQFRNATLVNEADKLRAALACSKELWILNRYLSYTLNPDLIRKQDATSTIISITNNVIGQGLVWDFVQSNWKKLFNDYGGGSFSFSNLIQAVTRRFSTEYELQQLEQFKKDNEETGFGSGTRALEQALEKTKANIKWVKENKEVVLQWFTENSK

Neprilysin = Neprilysin (Homo sapiens, UniProt P08473); assay: Inhibition of human recombinant neutral endopeptidase using […] as substrate after 20 to 40 mins by fluorometry
Sequence of Neprilysin (P08473 whole entry): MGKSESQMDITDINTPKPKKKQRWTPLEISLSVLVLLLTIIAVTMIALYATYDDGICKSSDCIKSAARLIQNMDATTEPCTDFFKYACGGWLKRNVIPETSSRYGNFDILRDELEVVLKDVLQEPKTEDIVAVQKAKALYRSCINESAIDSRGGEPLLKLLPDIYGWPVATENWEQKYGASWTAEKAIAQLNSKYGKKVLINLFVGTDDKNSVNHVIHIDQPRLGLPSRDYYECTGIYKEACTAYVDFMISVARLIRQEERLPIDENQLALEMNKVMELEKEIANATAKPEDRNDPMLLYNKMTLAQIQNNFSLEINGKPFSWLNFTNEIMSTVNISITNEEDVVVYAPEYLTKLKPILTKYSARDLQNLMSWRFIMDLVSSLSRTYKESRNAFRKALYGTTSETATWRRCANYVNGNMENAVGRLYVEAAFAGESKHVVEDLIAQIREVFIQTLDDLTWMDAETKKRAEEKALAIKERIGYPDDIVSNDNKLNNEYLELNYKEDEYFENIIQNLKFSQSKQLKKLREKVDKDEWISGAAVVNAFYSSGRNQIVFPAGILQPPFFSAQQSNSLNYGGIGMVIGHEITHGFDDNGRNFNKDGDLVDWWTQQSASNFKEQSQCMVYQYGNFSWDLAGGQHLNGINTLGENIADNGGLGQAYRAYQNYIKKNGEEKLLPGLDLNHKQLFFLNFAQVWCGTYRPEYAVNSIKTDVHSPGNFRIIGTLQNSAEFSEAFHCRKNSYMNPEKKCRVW

Compound	IC50 (Aminopeptidase N) [µM]	IC50 (Neprilysin) [µM]
CC(=O)N[C@H]1[C@@H](O[C@H](C)[C@H](NC(=O)[C@H](Cc2ccccc2)NC(=O)[C@H](CCCNC(=N)N)NC(=O)[C@@H](N)CCC(N)=O)C(=O)N[C@@H](CCCNC(=N)N)C(=O)O)O[C@H](CO)[C@@H](O)[C@@H]1O (H-QRFT(X1)R-OH)	> 100	> 100
H-QKFSR-OH	> 70	50
H-QRFCR-OH		> 100
H-QRFSK-OH	> 70	35
H-QRFTR-OH	> 100	> 100
